# From patent publication US20170197979A1, “BENZOTHIADIAZOLAMINES” (BAYER PHARMA AKTIENGESELLSCHAFT, priority 2014, published 2017)
# Target: T1, human full-length MKNK1 (Homo sapiens, UniProt Q9BUB5, T385D)
# T1 construct: GST (N); purchased Carna Biosciences 02-145; host or cells: insect cells (baculovirus expression system)
# Experiment: MKNK1 kinase high ATP assay (TR-FRET)
# Assay type: biochemical
# Settings: TR-FRET, high ATP (2 mM final), 15 min preincubation with enzyme, GST-MKNK1 (T344D); read-out: MKNK1 IC50
# Description: MKNK1 Kinase High ATP Assay
# MKNK1-inhibitory activity at high ATP of compounds of the present invention after their preincubation with MKNK1 was quantified employing the TR-FRET-based MKNK1 high ATP assay as described in the following paragraphs.
# A recombinant fusion protein of Glutathione-S-Transferase (GST, N-terminally) and human full-length MKNK1 (amino acids 1-424 and T344D of accession number BAA 19885.1), expressed in insect cells using baculovirus expression system and purified via glutathione sepharose affinity chromatography, was purchased from Carna Biosciences (product no 02-145) and used as enzyme. As substrate for the kinase reaction the biotinylated peptide biotin-Ahx-IKKRKLTRRKSLKG (C-terminus in amide form) was used, which can be purchased e.g. from the company Biosyntan (Berlin-Buch, Germany).
# For the assay 50 nL of a 100 fold concentrated solution of the test compound in DMSO was pipetted into a black low volume 384 well microtiter plate (Greiner Bio-One, Frickenhausen, Germany), 2 μL of a solution of MKNK1 in aqueous assay buffer [50 mM HEPES pH 7.5, 5 mM MgCl2, 1.0 mM dithiothreitol, 0.005% (v/v) Nonidet-P40 (Sigma)] was added and the mixture was incubated for 15 min at 22° C. to allow pre-binding of the test compounds to the enzyme before the start of the kinase reaction. Then the kinase reaction was started by the addition of 3 μL of a solution of adenosine-tri-phosphate (ATP, 3.3 mM=>final conc. in the 5 μL assay volume is 2 mM) and substrate (0.1 μM=>final conc. in the 5 μL assay volume is 0.06 μM) in assay buffer and the resulting mixture was incubated for a reaction time of 30 min at 22° C. The concentration of MKNK1 was adjusted depending of the activity of the enzyme lot and was chosen appropriate to have the assay in the linear range, typical concentrations were in the range of 0.003 μg/mL. The reaction was stopped by the addition of 5 μL of a solution of TR-FRET detection reagents (5 nM streptavidine-XL665 [Cisbio Bioassays, Codolet, France] and 1 nM anti-ribosomal protein S6 (pSer236)-antibody from Invitrogen [#44921G] and 1 nM LANCE EU-W1024 labeled ProteinG [Perkin-Elmer, product no. AD0071]) in an aqueous EDTA-solution (100 mM EDTA, 0.1% (w/v) bovine serum albumin in 50 mM HEPES pH 7.5).
# The resulting mixture was incubated for 1 h at 22° C. to allow the formation of complex between the phosphorylated biotinylated peptide and the detection reagents. Subsequently the amount of phosphorylated substrate was evaluated by measurement of the resonance energy transfer from the Eu-chelate to the streptavidine-XL. Therefore, the fluorescence emissions at 620 nm and 665 nm after excitation at 350 nm were measured in a TR-FRET reader, e.g. a Rubystar (BMG Labtechnologies, Offenburg, Germany) or a Viewlux (Perkin-Elmer). The ratio of the emissions at 665 nm and at […] was taken as the measure for the amount of phosphorylated substrate. The data were normalised (enzyme reaction without inhibitor=0% inhibition, all other assay components but no enzyme=100% inhibition).
# T1 sequence (Q9BUB5 1-424 isoform Q9BUB5-2 T344D): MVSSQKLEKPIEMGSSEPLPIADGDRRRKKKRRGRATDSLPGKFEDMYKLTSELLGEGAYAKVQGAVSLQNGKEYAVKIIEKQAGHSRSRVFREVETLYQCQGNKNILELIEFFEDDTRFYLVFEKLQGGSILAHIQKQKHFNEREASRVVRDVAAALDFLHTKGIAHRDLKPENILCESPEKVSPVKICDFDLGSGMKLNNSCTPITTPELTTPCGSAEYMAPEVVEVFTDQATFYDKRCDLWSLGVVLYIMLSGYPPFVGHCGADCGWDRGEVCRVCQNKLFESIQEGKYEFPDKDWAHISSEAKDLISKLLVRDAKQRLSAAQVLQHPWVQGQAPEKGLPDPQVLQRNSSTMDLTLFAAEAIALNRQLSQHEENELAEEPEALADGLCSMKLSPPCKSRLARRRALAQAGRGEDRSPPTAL
row,SMILES,IC50 [nM]
1,"COc1cc2nnsc2cc1Nc1ncnc2sc3c(c12)CC[C@H](C(=O)N1CCC1)C3 [Example 46, Azetidin-1-yl{(7S)-4-[(5-methoxy-1,2,3-benzothiadiazol-6-yl)amino]-5,6,7,8-tetrahydro[1]benzothieno[2,3-d]pyrimidin-7-yl}methanone]",182
2,"COc1cc2nnsc2cc1Nc1ncnc2sc3c(c12)CC[C@H](C(=O)N1CCC(N(C)C)CC1)C3 [Example 47, [4-(Dimethylamino)piperidin-1-yl]{(7S)-4-[(5-methoxy-1,2,3-benzothiadiazol-6-yl)amino]-5,6,7,8-tetrahydro[1]benzothieno[2,3-d]pyrimidin-7-yl}methanone]",7.6
3,"COc1cc2nnsc2cc1Nc1ncnc2sc3c(c12)CC[C@H](C(=O)N1CCC(N(C)CCN(C)C)CC1)C3 [Example 48, (4-{[2-(dimethylamino)ethyl](methyl)amino}piperidin-1-yl){(7S)-4-[(5-methoxy-1,2,3-benzothiadiazol-6-yl)amino]-5,6,7,8-tetrahydro[1]benzothieno[2,3-d]pyrimidin-7-yl}methanone]",2
4,"COc1cc2nnsc2cc1Nc1ncnc2sc3c(c12)CC[C@H](C(=O)N1CCN(CCN(C)C)CC1)C3 [Example 49, {4-[2-(Dimethylamino)ethyl]piperazin-1-yl}{(7S)-4-[(5-methoxy-1,2,3-benzothiadiazol-6-yl)amino]-5,6,7,8-tetrahydro[1]benzothieno[2,3-d]pyrimidin-7-yl}methanone]",1.7
5,"COc1cc2nnsc2cc1Nc1ncnc2sc3c(c12)CC[C@H](C(=O)N1CCN(C)CC1)C3 [Example 50, {(7S)-4-[(5-Methoxy-1,2,3-benzothiadiazol-6-yl)amino]-5,6,7,8-tetrahydro[1]benzothieno[2,3-d]pyrimidin-7-yl}(4-methylpiperazin-1-yl)methanone]",11
6,"COc1cc2nnsc2cc1Nc1ncnc2sc3c(c12)CC[C@H](C(=O)N1CC[C@H](N(C)C)C1)C3 [Example 51, [(3S)-3-(Dimethylamino)pyrrolidin-1-yl]{(7S)-4-[(5-methoxy-1,2,3-benzothiadiazol-6-yl)amino]-5,6,7,8-tetrahydro[1]benzothieno[2,3-d]pyrimidin-7-yl}methanone]",3.3
7,"COc1cc2nnsc2cc1Nc1ncnc2sc3c(c12)CC[C@H](C(=O)N1CC[C@@H](N(C)C)C1)C3 [Example 52, [(3R)-3-(Dimethylamino)pyrrolidin-1-yl]{(7S)-4-[(5-methoxy-1,2,3-benzothiadiazol-6-yl)amino]-5,6,7,8-tetrahydro[1]benzothieno[2,3-d]pyrimidin-7-yl}methanone]",2.1
8,"COc1cc2nnsc2cc1Nc1ncnc2sc3c(c12)CC[C@H](C(=O)N1C[C@@H]2C[C@H]1CN2C)C3 [Example 53, {(7S)-4-[(5-Methoxy-1,2,3-benzothiadiazol-6-yl)amino]-5,6,7,8-tetrahydro[1]benzothieno[2,3-d]pyrimidin-7-yl}[(1S,4S)-5-methyl-2,5-diazabicyclo[2.2.1]hept-2-yl]methanone]",3.8
9,"COc1cc2nnsc2cc1Nc1ncnc2sc3c(c12)CC[C@H](C(=O)N1CC(N2CCCCC2)C1)C3 [Example 54, {(7S)-4-[(5-Methoxy-1,2,3-benzothiadiazol-6-yl)amino]-5,6,7,8-tetrahydro[1]benzothieno[2,3-d]pyrimidin-7-yl}[3-(piperidin-1-yl)azetidin-1-yl]methanone]",9.2
10,"CCN(CCN(C)C)C(=O)[C@H]1CCc2c(sc3ncnc(Nc4cc5snnc5cc4OC)c23)C1 [Example 55, (7S)—N-[2-(Dimethylamino)ethyl]-N-ethyl-4-[(5-methoxy-1,2,3-benzothiadiazol-6-yl)amino]-5,6,7,8-tetrahydro[1]benzothieno[2,3-d]pyrimidine-7-carboxamide]",8.9

# Next, values leading:
row,IC50 [nM],SMILES
1,7.3,"COc1cc2nnsc2cc1Nc1ncnc2sc3c(c12)CC[C@H](C(=O)NCCC(F)(F)F)C3 [Example 56, (7S)-4-[(5-Methoxy-1,2,3-benzothiadiazol-6-yl)amino]-N-(3,3,3-trifluoropropyl)-5,6,7,8-tetrahydro[1]benzothieno[2,3-d]pyrimidine-7-carboxamide]"
2,1.6,"COc1cc2nnsc2cc1Nc1ncnc2sc3c(c12)CC[C@H](C(=O)N1C[C@H](O)[C@@H](O)C1)C3 [Example 57, [(3S,4S)-3,4-Dihydroxypyrrolidin-1-yl]{(7S)-4-[(5-methoxy-1,2,3-benzothiadiazol-6-yl)amino]-5,6,7,8-tetrahydro[1]benzothieno[2,3-d]pyrimidin-7-yl}methanone]"
3,1.9,"COc1cc2nnsc2cc1Nc1ncnc2sc3c(c12)CC[C@H](C(=O)N1C[C@H]2C[C@@H]1CN2C)C3 [Example 58, {(7S)-4-[(5-Methoxy-1,2,3-benzothiadiazol-6-yl)amino]-5,6,7,8-tetrahydro[1]benzothieno[2,3-d]pyrimidin-7-yl}[(1R,4R)-5-methyl-2,5-diazabicyclo[2.2.1]hept-2-yl]methanone]"
4,3.2,"CN1C[C@H]2C[C@@H]1CN2C(=O)[C@H]1CCc2c(sc3ncnc(Nc4ccc5nnsc5c4)c23)C1 [Example 59, [(7S)-4-(1,2,3-Benzothiadiazol-6-ylamino)-5,6,7,8-tetrahydro[1]benzothieno[2,3-d]pyrimidin-7-yl][(1R,4R)-5-methyl-2,5-diazabicyclo[2.2.1]hept-2-yl]methanone]"
